PubChem BioAssay AID1845197 (Molecular Pharmacology Branch, DTP, NCI, 2023)

Tested on: 349418-098-R tumor spheroid viability
Assay: Anticancer human tumor 349418-098-R patient-derived lung adenocarcinoma cell line growth inhibition
Conditions: spheroids with HUVEC and MSC; for IC50: curve of first compound; for viability, T/C: stronger effect = lower value
Method in brief: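 Single agents and combinations were tested on spheroids built from tumor cells plus HUVEC and hMSC, at half-log dilutions starting at or near clinical Cmax, else 10 microM; final DMSO 0.25% (v/v).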

[1] = second compound 30 pM, first compound 0.0949 µM
[2] = second compound 30 pM, first compound 0.3 µM
[3] = second compound 30 pM, first compound 0.949 µM
[4] = second compound 30 pM, first compound 3 µM
[5] = second compound 94.9 pM, first compound 0.0949 µM
[6] = second compound 94.9 pM, first compound 0.3 µM
[7] = second compound 94.9 pM, first compound 0.949 µM
[8] = second compound 94.9 pM, first compound 3 µM
[9] = second compound 0.0003 µM, first compound 0.0949 µM
[10] = second compound 0.0003 µM, first compound 0.3 µM
[11] = second compound 0.0003 µM, first compound 0.949 µM
[12] = second compound 0.0003 µM, first compound 3 µM
[13] = second compound 0.000949 µM, first compound 0.0949 µM
[14] = second compound 0.000949 µM, first compound 0.3 µM
[15] = second compound 0.000949 µM, first compound 0.949 µM
[16] = second compound 0.000949 µM, first compound 3 µM
[17] = second compound 0.003 µM, first compound 0.0949 µM
[18] = second compound 0.003 µM, first compound 0.3 µM
[19] = second compound 0.003 µM, first compound 0.949 µM
[20] = second compound 0.003 µM, first compound 3 µM
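Also: spheroids exposed to compound for 7 days before measurement.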
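For viability, T/C in this document: percent of vehicle control viability with 100% = DMSO-treated spheroids.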

Row | SMILES | IC50 (second compound 30 pM) [nM] | IC50 (second compound 94.9 pM) [nM] | IC50 (second compound 0.0003 µM) [nM] | IC50 (second compound 0.000949 µM) [nM] | IC50 (second compound 0.003 µM) [nM] | viability, T/C [1] [%] | viability, T/C [2] [%] | viability, T/C [3] [%] | viability, T/C [4] [%] | viability, T/C [5] [%] | viability, T/C [6] [%] | viability, T/C [7] [%] | viability, T/C [8] [%] | viability, T/C [9] [%] | viability, T/C [10] [%] | viability, T/C [11] [%] | viability, T/C [12] [%] | viability, T/C [13] [%] | viability, T/C [14] [%] | viability, T/C [15] [%] | also measured
1 | Cn1ncnc1[C@H]1c2n[nH]c(=O)c3cc(F)cc(c23)N[C@@H]1c1ccc(F)cc1 + COc1cc2c(cc1O)CCNC21CSC2c3c(OC(C)=O)c(C)c4c(c3C(COC1=O)N1C(O)C3Cc5cc(C)c(OC)c(O)c5C(C21)N3C)OCO4 | 1640 | 956 | 107 | < 9.49 | < 9.49 | 88.8 | 93.5 | 86.8 | 9.75 | 85.6 | 94.8 | 50.3 | 4.92 | 47.8 | 34.9 | 11.5 | 2.39 | 0.53 | 0.21 | 0.13 | viability, T/C (second compound 30 pM, first compound 0.00949 µM): 87.2%; viability, T/C (second compound 30 pM, first compound 0.03 µM): 97.2%; viability, T/C (second compound 94.9 pM, first compound 0.00949 µM): 93.2%; viability, T/C (second compound 94.9 pM, first compound 0.03 µM): 89.6%; viability, T/C (second compound 0.0003 µM, first compound 0.00949 µM): 66.4%; viability, T/C (second compound 0.0003 µM, first compound 0.03 µM): 68.5%; viability, T/C (second compound 0.000949 µM, first compound 0.00949 µM): 0.87%; viability, T/C (second compound 0.000949 µM, first compound 0.03 µM): 0.43%; viability, T/C [16]: 0.19%; viability, T/C (second compound 0.003 µM, first compound 0.00949 µM): 1.57%; viability, T/C (second compound 0.003 µM, first compound 0.03 µM): 1.54%; viability, T/C [17]: 1.41%; viability, T/C [18]: 1.35%; viability, T/C [19]: 2.21%; viability, T/C [20]: 3.32%
2 | O=C(c1cc(Cc2n[nH]c(=O)c3ccccc23)ccc1F)N1CCN(C(=O)C2CC2)CC1 + COc1cc2c(cc1O)CCNC21CSC2c3c(OC(C)=O)c(C)c4c(c3C(COC1=O)N1C(O)C3Cc5cc(C)c(OC)c(O)c5C(C21)N3C)OCO4 | > 30000 | > 30000 | 3700 | < 94.9 | < 94.9 | 122 | 107 | 108 | 111 | 104 | 108 | 102 | 107 | 94.9 | 87.4 | 79.7 | 58.9 | 0.44 | 0.4 | 0.25 | viability, T/C (second compound 30 pM, first compound 9.49 µM): 107%; viability, T/C (second compound 30 pM, first compound 30 µM): 69.6%; viability, T/C (second compound 94.9 pM, first compound 9.49 µM): 98.7%; viability, T/C (second compound 94.9 pM, first compound 30 µM): 54.6%; viability, T/C (second compound 0.0003 µM, first compound 9.49 µM): 19.3%; viability, T/C (second compound 0.0003 µM, first compound 30 µM): 5.2%; viability, T/C [16]: 0.25%; viability, T/C (second compound 0.000949 µM, first compound 9.49 µM): 0.15%; viability, T/C (second compound 0.000949 µM, first compound 30 µM): 0.44%; viability, T/C [17]: 1.64%; viability, T/C [18]: 1.88%; viability, T/C [19]: 1.67%; viability, T/C [20]: 2.88%; viability, T/C (second compound 0.003 µM, first compound 9.49 µM): 3.79%; viability, T/C (second compound 0.003 µM, first compound 30 µM): 5.74%
